Blank lines part the entries; values can stand above or below the molecule they belong to. Where no end group is shown, it is not given here.
Assays:
[1] = test system: U2OS-hMRGX1-βarrGFP cells; assay: Toxicity algorithm (Icyt) on the InCell imaging assay; assay type: cell-based; details: even at 100 μM
Method: U2OS-hMRGX1-βarrGFP stable cells were cultured in MEM supplemented with 10% heat-inactivated FBS, 4 mM L-Glutamine, 10 μg/ml Gentamicin, 10 mM HEPES, 0.4 mg/ml G-418, and 0.4 mg/ml Zeocin. Cells were plated on black/clear plastic bottom 384-well Corning plates at a density of 3000 cells/well in 20 μl growth medium and cultured overnight. DMSO, or sample compounds titrated in 75% DMSO were transferred from the compound source plate into the assay plate (200 nl/well). After 15 minutes incubation at 37° C. and 5% CO2, 5 μl of agonist (varying concentrations of BAM15 or EC80 concentration of 60 μM for compound titrations) was added and cells were incubated at 37° C. for 30 minutes. The fixing/nuclear staining solution was prepared in PBS as a 2× stock containing 4% paraformaldehyde and 2 μM DRAQ5 and 25 μl of this solution was added to the cells and incubated at room temperature in the dark for 30 minutes. […]
All experiments with dose-response relationships were analyzed by a nonlinear regression software package from Graphpad (San Diego, Calif.). […] Confocal images from the IcCell 3000 were analyzed by the Raven software. Images of 200-300 cells from each well were captured and analyzed with GRN1 (granularity) algorithm using the Raven software of IN Cell Analyzer 3000. […] Icyt value was used to measure the average intensity of the green fluorescence inside the bounding box as described above. […]

hMRG-X1 receptor [2] = biological target: T1, hMRG-X1 receptor (Homo sapiens, UniProt Q96LB2); assay: Receptor trafficking/internalization assay (InCell, Transfluor) in U2OS-hMRGX1-βarrGFP cells; assay type: cell-based; details: for IC50: 60 μM BAM15 (EC80), receptor trafficking
T1 sequence (Q96LB2 whole entry): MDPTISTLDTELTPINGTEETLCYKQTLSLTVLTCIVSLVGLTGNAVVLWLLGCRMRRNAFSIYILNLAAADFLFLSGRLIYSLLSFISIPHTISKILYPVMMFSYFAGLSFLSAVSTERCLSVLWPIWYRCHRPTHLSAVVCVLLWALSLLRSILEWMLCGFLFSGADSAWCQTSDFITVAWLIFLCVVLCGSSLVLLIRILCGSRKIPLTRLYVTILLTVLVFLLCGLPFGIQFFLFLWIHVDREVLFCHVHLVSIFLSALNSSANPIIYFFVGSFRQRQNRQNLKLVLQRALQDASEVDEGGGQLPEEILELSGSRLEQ
Method: U2OS-hMRGX1-βarrGFP stable cells were cultured in MEM supplemented with 10% heat-inactivated FBS, 4 mM L-Glutamine, 10 μg/ml Gentamicin, 10 mM HEPES, 0.4 mg/ml G-418, and 0.4 mg/ml Zeocin. Cells were plated on black/clear plastic bottom 384-well Corning plates at a density of 3000 cells/well in 20 μl growth medium and cultured overnight. DMSO, or sample compounds titrated in 75% DMSO were transferred from the compound source plate into the assay plate (200 nl/well). After 15 minutes incubation at 37° C. and 5% CO2, 5 μl of agonist (varying concentrations of BAM15 or EC80 concentration of 60 μM for compound titrations) was added and cells were incubated at 37° C. for 30 minutes. The fixing/nuclear staining solution was prepared in PBS as a 2× stock containing 4% paraformaldehyde and 2 μM DRAQ5 and 25 μl of this solution was added to the cells and incubated at room temperature in the dark for 30 minutes. The solution was then aspirated and replaced with PBS before confocal microscopy. Confocal microscopy was performed on the IN Cell Analyzer 3000 (GE Healthcare, Piscataway, N.J.).
All experiments with dose-response relationships were analyzed by a nonlinear regression software package from Graphpad (San Diego, Calif.). In the InCell 3000 imager, two excitation lines, 488 nm and 633 nm, were used to simultaneously excite βarrestin-GFP and the DRAQ5 nuclear stain, respectively. Confocal images from the IcCell 3000 were analyzed by the Raven software. Images of 200-300 cells from each well were captured and analyzed with GRN1 (granularity) algorithm using the Raven software of IN Cell Analyzer 3000. Individual cells or nuclei are first identified by thresholding the red channel (DRAQ5). From the nucleus, a rectangular bounding box was dilated out to the edge of the cell with a dilation setting of 15 pixels. […] This granularity algorithm was used to measure the number of fluorescent spots (Ngrains) based on fluorescent intensity and size of the grains and the average value from all the cells in a well were used to obtain the “Ngrain” value for the well. The same GRN1 algorithm was used to measure toxic affects or other false positives. Icyt value was used to measure the average intensity of the green fluorescence inside the bounding box as described above. Low Icyt values may indicate a sign of toxicity (resulting in either cell lyses or cells rounding up) displaying little or no GFP distribution in the cytoplasm and the plasma membrane, while high Icyt values may be due to the presence of fluorescent compound.

hMRG-X1 receptor [3] = biological target: T1, hMRG-X1 receptor; assay: Intracellular Ca2+ (FLIPR) assay in CHO-hMRG-X1-NFAT/Bla cells; assay type: cell-based; details: inhibition of BAM15-induced i[Ca2+] response
Method: Intracellular Ca^2+ measurements were performed essentially as described (14, 15). Modifications include 8000 cells/well of the CHO-hMRG-X1-NFAT/Bla cells in 20 μgrowth medium plated in 384-well plates 24 hours before assay. Cells were loaded with 20 μl of 2X calcium probe and fluorescent quencher. Agonist was prepared as a 4× stock in HBSS buffer and added to the assay plate by the FLIPR384 pipetter (13.3 μl/well). Experimental data points are represented as median±standard deviation of 4 replicates.

hMRG-X1 receptor [4] = biological target: T1, hMRG-X1 receptor; assay: Beta-lactamase (BLA) reporter-gene assay in CHO-hMRG-X1-NFAT/BLA cells; assay type: cell-based; details: for IC50: antagonism of BAM15-induced BLA response
Method: BLA assays in 384-well plates were performed essentially as described previously (11). For miniaturization of the BLA assay into 3456-well format, cells were serum-starved for ˜18 hours in assay medium (11) the day before the assay. On the day of the assay, cells were dissociated with enzyme-free dissociation buffer, re-suspended into assay medium and dispensed into a 3456-well nanoplate (3000 cells in 1.4 μl/well) using the FRD (Aurora Discovery, San Diego, Calif.) (13). Rest of the BLA assay was conducted essentially as described earlier (13). The cellular response was also observed by fluorescence microscopy with UV illumination. The data are plotted as a ratio of the emissions 460 nm/530 nm. Experimental data points are represented as median±standard deviation of 4-115 replicates.

hMRG-X1 receptor [5] = biological target: T1, hMRG-X1 receptor; assay: Whole cell receptor binding assay with 3H-BAM in CHO-hMRG-X1-NFAT-BLA cells; details: 10 nM 3H-BAM, 4° C.
Method: CHO-hMRG-X1-NFAT-BLA cells were plated in a 24-well plate at 60,000 cells/well in 500 μl growth medium and incubated at 37° C. for 24 hours. The cells were washed once with 200 μl assay buffer (HANKS with 0.1% BSA and 20 mM HEPES, pH 7.5, refrigerated at 4° C.) using a vacuum aspirator. 90 μl assay buffer was added to each well followed by an addition of 0.2 μl/well diluted compounds (500X stock in DMSO) and incubated at 4° C. for 5 minutes. […] of ^3H-BAM peptide was added to each well (10 nM final concentration; ˜75,000 dpm) and the assay plate was incubated at 4° C. for 30 minutes with brief gentle shaking every 5 minutes. The assay plate was then washed rapidly with 2X 200 μl assay buffer (approximately 4 to 5 seconds for both washes). All wash steps were performed in a cold room (4° C.). To lyse the cells, 200 μl of 0.2 M NaOH was added to each well and incubate at room temperature for 30 minutes. The cell lysate in each well was transferred to a scintillation vial followed by addition of 3 ml scintillation solution (UltimaGold, PerkinElmer) and counted in a scintillation counter (1 minute per vial).

hMRG-X1 receptor [6] = biological target: T1, hMRG-X1 receptor; assay: as above; details: [3H]-BAM15

Molecule: COc1ccccc1C(=O)C=C1C2CCN(CC2)C1C(c1ccccc1)c1ccccc1 (centres unmarked) [Compound 1]
toxicity by toxicity algorithm on the InCell imaging assay [1]: minimal toxicity

Molecule: COc1ccc(C(=O)OC2C3CCN(CC3)C2C(c2ccccc2)c2ccccc2)cc1OC (centres unmarked) [Compound 2]
IC50 (hMRG-X1 receptor [2]; IC50 InCell): 2800 nM
IC50 (hMRG-X1 receptor [3]; IC50 FLIPR): 157 nM
IC50 (hMRG-X1 receptor [4]; IC50 BLA): 64 nM

Molecule: COc1ccccc1C(O)C=C1C2CCN(CC2)C1C(c1ccccc1)c1ccccc1 (centres unmarked) [Compound 3]
IC50 (hMRG-X1 receptor [5]; read-out: IC50 Binding): 182 nM
IC50 (hMRG-X1 receptor [2]; read-out: IC50 InCell): 550 nM
IC50 (hMRG-X1 receptor [3]; read-out: IC50 FLIPR): 187 nM
IC50 (hMRG-X1 receptor [4]; read-out: IC50 BLA): 80 nM

Molecule: OC(C=C1C2CCN(CC2)C1C(c1ccccc1)c1ccccc1)c1cccc(C(F)(F)F)c1 (centres unmarked) [Compound 4]
IC50 (hMRG-X1 receptor [2]; read-out: IC50 InCell): 6780 nM
IC50 (hMRG-X1 receptor [3]; read-out: IC50 FLIPR): 209 nM
IC50 (hMRG-X1 receptor [4]; read-out: IC50 BLA): 90 nM

Molecule: O=C(Nc1cccc2ccccc12)OC1C2CCN(CC2)C1C(c1ccccc1)c1ccccc1 (centres unmarked) [Compound 5]
IC50 (hMRG-X1 receptor [5]; IC50 Binding): 1220 nM
IC50 (hMRG-X1 receptor [2]; IC50 InCell): 2200 nM
IC50 (hMRG-X1 receptor [3]; IC50 FLIPR): 904 nM
IC50 (hMRG-X1 receptor [4]; IC50 BLA): 124 nM

Molecule: O=C(Nc1ccccc1Cl)OC1C2CCN(CC2)C1C(c1ccccc1)c1ccccc1 (centres unmarked) [Compound 6]
IC50 (hMRG-X1 receptor [5]; IC50 Binding): 607 nM
IC50 (hMRG-X1 receptor [2]; IC50 InCell): 3600 nM
IC50 (hMRG-X1 receptor [3]; IC50 FLIPR): 751 nM
IC50 (hMRG-X1 receptor [4]; IC50 BLA): 140 nM

Molecule: C(Cc1ccccc1)=C1C2CCN(CC2)C1C(c1ccccc1)c1ccccc1 (centres unmarked) [Compound 7]
IC50 (hMRG-X1 receptor [5]; read-out: IC50 Binding): 1430 nM
IC50 (hMRG-X1 receptor [2]; read-out: IC50 InCell): 2200 nM
IC50 (hMRG-X1 receptor [3]; read-out: IC50 FLIPR): 220 nM
IC50 (hMRG-X1 receptor [4]; read-out: IC50 BLA): 163 nM

Molecule: OC(C=C1C2CCN(CC2)C1C(c1ccccc1)c1ccccc1)c1ccc(F)cc1 (centres unmarked) [Compound 8]
IC50 (hMRG-X1 receptor [5]; read-out: IC50 Binding): 630 nM
IC50 (hMRG-X1 receptor [2]; read-out: IC50 InCell): 4800 nM
IC50 (hMRG-X1 receptor [3]; read-out: IC50 FLIPR): 334 nM
IC50 (hMRG-X1 receptor [4]; read-out: IC50 BLA): 165 nM

Molecule: Cc1cc(C)cc(C(O)C=C2C3CCN(CC3)C2C(c2ccccc2)c2ccccc2)c1 (centres unmarked) [Compound 9]
IC50 (hMRG-X1 receptor [2]; read-out: IC50 InCell): 5200 nM
IC50 (hMRG-X1 receptor [3]; read-out: IC50 FLIPR): 1500 nM
IC50 (hMRG-X1 receptor [4]; read-out: IC50 BLA): 200 nM

Molecule: N#Cc1cccc(COC2C3CCN(CC3)C2C(c2ccccc2)c2ccccc2)c1 (centres unmarked) [Compound 10]
IC50 (hMRG-X1 receptor [2]; read-out: IC50 InCell): 10000 nM
IC50 (hMRG-X1 receptor [3]; read-out: IC50 FLIPR): 492 nM
IC50 (hMRG-X1 receptor [4]; read-out: IC50 BLA): 209 nM

Molecule: FC(F)(F)c1ccccc1CNC1C2CCN(CC2)C1C(c1ccccc1)c1ccccc1 (centres unmarked) [Compound 11]
IC50 (hMRG-X1 receptor [5]; read-out: IC50 Binding): 1290 nM
IC50 (hMRG-X1 receptor [2]; read-out: IC50 InCell): 5200 nM
IC50 (hMRG-X1 receptor [3]; read-out: IC50 FLIPR): 460 nM
IC50 (hMRG-X1 receptor [4]; read-out: IC50 BLA): 244 nM

Molecule: O=C(OC1C2CCN(CC2)C1C(c1ccccc1)c1ccccc1)c1ccccc1C(F)(F)F (centres unmarked) [Compound 12]
IC50 (hMRG-X1 receptor [5]; IC50 Binding): 2400 nM
IC50 (hMRG-X1 receptor [2]; IC50 InCell): 8800 nM
IC50 (hMRG-X1 receptor [3]; IC50 FLIPR): 3300 nM
IC50 (hMRG-X1 receptor [4]; IC50 BLA): 252 nM

Molecule: O=C(Nc1cccc([N+](=O)[O-])c1)OC1C2CCN(CC2)C1C(c1ccccc1)c1ccccc1 (centres unmarked) [Compound 13]
IC50 (hMRG-X1 receptor [5]; IC50 Binding): 1850 nM
IC50 (hMRG-X1 receptor [2]; IC50 InCell): 6300 nM
IC50 (hMRG-X1 receptor [3]; IC50 FLIPR): 1300 nM
IC50 (hMRG-X1 receptor [4]; IC50 BLA): 290 nM

Molecule: O=C(Nc1ccccc1Cl)OC1C2CCN(CC2)C1C(c1ccccc1)c1ccccc1 (centres unmarked) [Compound 14]
IC50 (hMRG-X1 receptor [5]; IC50 Binding): 1180 nM
IC50 (hMRG-X1 receptor [2]; IC50 InCell): 29000 nM
IC50 (hMRG-X1 receptor [3]; IC50 FLIPR): 2700 nM
IC50 (hMRG-X1 receptor [4]; IC50 BLA): 375 nM

Molecule: COc1ccccc1NC(=S)NC1C2CCN(CC2)C1C(c1ccccc1)c1ccccc1 (centres unmarked) [Compound 15]
IC50 (hMRG-X1 receptor [5]; read-out: IC50 Binding): 2510 nM
IC50 (hMRG-X1 receptor [2]; read-out: IC50 InCell): 13500 nM
IC50 (hMRG-X1 receptor [3]; read-out: IC50 FLIPR): 9800 nM
IC50 (hMRG-X1 receptor [4]; read-out: IC50 BLA): 418 nM

Molecule: N#Cc1ccc(COC2C3CCN(CC3)C2C(c2ccccc2)c2ccccc2)cc1 (centres unmarked) [Compound 16]
IC50 (hMRG-X1 receptor [5]; read-out: IC50 Binding): 1850 nM
IC50 (hMRG-X1 receptor [4]; read-out: IC50 BLA): 556 nM

EC50 (hMRG-X1 receptor [2]; BAM15-induced, 30 minutes, FIG. 4, read-out: EC50 of pit phenotype (receptor internalization)): ~14000 nM
Kd (hMRG-X1 receptor [6]): 80 nM
EC50 (hMRG-X1 receptor [4]; 1.8 μl assay in 3456-well plates, FIG. 3A, read-out: EC50, BLA assay miniaturized): 20 nM
EC50 (hMRG-X1 receptor [4]; 384-well, across 5 clones, FIG. 2B, read-out: EC50s for BAM15, BLA assay): 40 to 300 nM
Molecule: VGRPEWWMDYQKRYG [BAM15, reference compound]

Reference: patent publication US20080027095A1, “Use Of 3-Substituted-2-(Diphenylmethy)-1-Azabicyclo[2.2.2]Octanes For Treating Mrg-X1 Receptor Mediated Diseases” (priority 2005, published 2008)
